Two compounds from ChEMBL document CHEMBL2380199, “Ostreol A: a new cytotoxic compound isolated from the epiphytic dinoflagellate Ostreopsis cf. ovata from the coastal waters of Jeju Island, Korea” (Bioorg Med Chem Lett, 2013) can be followed below.

Converted amounts (≈) assume the structure as drawn.

The nature of this data set: Toxicity in Artemia salina after 24 hrs. It is filed as organism-based. As to conditions: in vivo, read-out: LD50.

Take `CC1=C(O)[C@@](O)([C@@H]2C[C@H]3OC(=O)[C@H](C)[C@@H]4CCC[C@@]5(CC[C@H](O5)[C@H](O)[C@@]5(C)CC(=O)[C@H](O5)[C@H]5C[C@]6(C)CC[C@](O5)(O6)[C@H]5CC[C@](C)(C[C@@H](C)/C=C(C)/C=C/[C@H]3O2)O5)O4)OCC1`: the LC50 at 24 h is 2.5 µg/mL (≈ 2.92 µM).

Take `C=CCC/C=C/CCCC/C=C/[C@@H](O)[C@H](O)[C@@H]1O[C@@H]([C@H](O)[C@H](O)C(=C)CC[C@@H](O)[C@H]2C[C@@H](O)[C@@H](O)[C@H]([C@@H](O)[C@H](O)/C=C(C)/C=C/CC(O)CC(O)CNC(=O)C(O)C(O)C/C=C\C(O)C(O)/C(C)=C/CCCC(O)/C=C/CC(O)/C=C/CC(O)CN)O2)C[C@@H](O)[C@H]1O` (some centres not stated): the LC50 at 24 h came to 0.9 µg/mL (≈ 0.685 µM).
